Entries after “also recorded” stand apart in the source; their conditions may differ.
Assays:
HCA-7 cells [1] = assay: Differential gene expression after NS-398 treatment (SSH, differential screening, Northern blotting); type: cell-based
Method: Cell culture. The HCA-7 cells, which are derived from a rectal carcinoma, were kindly provided by Dr. Susan Kirkland (ICRF, London, UK). Cells were cultured at 37° C. with 5% CO2 in McCoy's 5A medium containing penicillin, streptomycin, 10% FBS (Life Technologies, Inc., Grand Island, N.Y.). NS-398 and nimesulide (Cayman chemicals, Ann Arbor, Mich.), sulindac sulfide (Merck & Co., Rahway, N.J.) and SC-58125 (G.D. Searle Co., St. Louis, Mo.) were dissolved in DMSO prior to addition to cell culture medium. Experimental controls were treated with 0.1% DMSO.
mRNA isolation. Total cellular RNA was isolated using Tri-Reagent (Molecular Research Center, Inc., Cincinnati, Ohio) and polyadenylated RNA was isolated using a mRNA Purification Kit (Amersham Pharmacia Biotech, Inc., Piscataway, N.J.).
Suppression subtractive hybridization. SSH was performed with the PCR-Select™ cDNA Subtraction Kit (Clontech Laboratories Inc., Palo Alto, Calif.) as described by the manufacturer except for slight modifications of the PCR and hybridization conditions. Starting material consisted of 2 μg of mRNA from NS-398 treated HCA-7 cells and 2 μg of mRNA from control cells. After synthesis of the first and second cDNA strands, the cDNA was digested with Rsa I to obtain shorter, blunt-ended molecules. Then ligation of two different adapters to the cDNA fragments was performed separately. The adapter sequences were as follows: 5′-[…]-3′ (adapter 1-SEQ ID NO: 52) and 5′-[…]-3′ (adapter 2R-SEQ ID NO: 53). For the first round hybridization, the mixture of driver and tester cDNA were denatured at 98° C. for 1.5 min and then maintained at 68° C. for ˜10 h. For the second round hybridization, driver cDNA was denatured at 98° C. for 1.5 min and then added to the mixture of the two previous hybridization and allowed to incubate at 68° C. for ˜18 h.
After two rounds of hybridization, two rounds of PCR were performed to amplify the specific, differentially expressed cDNA fragments. All PCR reactions were performed using a PTC-100 thermal cycler (MJ Research, Inc. Watertown, Mass.). The primer used in first round is 5′-[…]-3′ (primer 1-SEQ ID NO: 54) and the primers used in second round were 5′-[…]-3′ (nested primer 1-SEQ ID NO: 55) and 5′-[…]-3′ (nested primer 2R -SEQ ID NO: 56). Cycling parameters are as follows: for the first round, 27 cycles of 94° C. for 30 s, 64° C. for 30 s and 71° C. for 1.5 min; for the second round, 15 cycles of 94° C. for 30 s, 68° C. for 30 s and 72° C. for 1.5 min.
To evaluate subtractive efficiency, the same amount of subtracted and unsubtracted secondary PCR products were applied as templates, and GAPDH primers were used to perform PCR. The PCR products were examined in a 2.0% agarose/EtBr gel to detect the abundance of GAPDH. After evaluation of the subtractive efficiency, the subtracted PCR products were cloned directly into the pCR2.1-TOPO vector (InVitrogen, Carlsbad, Calif.). Plates were incubated at 37° C. until small clones were visible and the blue/white staining could be clearly distinguished.
Differential screening. Differential screening was performed by using the PCR-Select™ Differential Screening Kit (Clontech) according to the users manual. After picking the recombinant clones from the subtractive library and identifying them by restriction digestion, the insert was PCR amplified in 20 μl volume reactions using nested PCR primer 1 and 2R. After amplification, 5 μl of the PCR product was denatured with 5 μl of 0.6 N NaOH and then 1.5 μl of each mixture was transferred to a nylon membrane. Each cDNA fragment was arrayed in duplicate in each blot and two identical blots were prepared for hybridization with different probes. The total secondary PCR amplified products from the forward and reverse SSH were used as probes. After washing, the membranes were exposed overnight to Kodak BioMax MR x-ray film (Eastman Kodak Company, Rochester, N.Y.) with and intensifying screen at −70° C.
Northern blotting. […]

HCA-7 cells [2] = assay: HCA-7 cell growth following treatment; type: cell-based; conditions: following treatment with NS-398
[3] = tested on: different types of cancer cell lines; conditions: cited from earlier work
[4] = tested on: AOM induced colon carcinogenesis; conditions: AOM induced colon carcinogenesis rat model; cited from earlier work
NNK-induced lung cancer = NNK-induced lung cancer model; cited from earlier work
[5] = tested on: human colon carcinoma cells; conditions: cited from earlier work
prostate carcinoma cells = conditions: cited from earlier work
angiogenesis = conditions: cited from earlier work
[6] = cited from earlier work
[7] = cited from earlier work; remark: listed apart in the source
[8] = 100 μM NS-398 for 4 days, down = decreased levels following treatment, -fold decrease
[9] = 100 μM NS-398 for 4 days, up = increased levels following treatment, -fold increase

Which results are given for `CS(=O)(=O)Nc1ccc([N+](=O)[O-])cc1OC1CCCCC1` [NS-398]?
Regulation by NS-398: Cyclin K (AF060515) (HCA-7 cells [1]; [8]): down (2.1) fold; Regulation by NS-398: KIAA0101 (D14657) (HCA-7 cells [1]; [8]): down (2.7) fold; Regulation by NS-398: Proliferation associated p100 protein (AF098158) (HCA-7 cells [1]; [8]): down (2.2) fold; Regulation by NS-398: Dynamin 2 (NM_004945) (HCA-7 cells [1]; [9]): up (3.1) fold; Regulation by NS-398: ENH, LIM protein (similar to rat protein kinase C-binding enigma) (NM_006457) (HCA-7 cells [1]; [9]): up (3.0) fold; Regulation by NS-398: FAT tumor suppressor (Drosophila) homolog (NM_005245) (HCA-7 cells [1]; [9]): up (4.4) fold; Regulation by NS-398: LIP.1 (LAR-interacting protein 1b) (U22816) (HCA-7 cells [1]; [9]): up (3.4) fold; Regulation by NS-398: PCDH7 (BH-Pcdh) (AB06757) (HCA-7 cells [1]; [9]): up (26.0) fold; Regulation by NS-398: Pdcd4 (Programmed cell death) (NM_011050) (HCA-7 cells [1]; [9]): up (1.5) fold; Regulation of named genes by NS-398, stated in words (HCA-7 cells [1]; gene named in the value): genes that were down-regulated by NS-398, one was designated as NRG-1; also recorded: Cyclin K was found to be down-regulated; also recorded: Pdcd4, Dynamin 2 and LIP.1 are all up-regulated; also recorded: ENH is a LIM protein whose levels are increased; Inhibition of HCA-7 cell growth (HCA-7 cells [2]): significant inhibition; Effect on tumor growth [3]: suppress tumor growth; Chemopreventive effects [4]: chemopreventive effects; Chemopreventive effects (NNK-induced lung cancer): chemopreventive effects; Induction of apoptosis [5]: induce apoptosis; Induction of apoptosis (prostate carcinoma cells): induce apoptosis; Anti-angiogenic effects (angiogenesis): anti-angiogenic effects

Which “Drug absorbed after oral administration” value [6] does the source give for `CC1=C(CC(=O)O)c2cc(F)ccc2/C1=C\c1ccc([S+](C)[O-])cc1` (stereo not drawn) [sulindac, (Z)-5-Fluoro-2-methyl-1-((4(methylsulfinyl)phenyl)methylene) 1H-indene-3-acetic acid] here?
The value was “about 90%”.

And the “Time to peak plasma levels” value ([6]; fasting patients, oral)?
Its value is “about 2 hours”.

What about the “Mild gastrointestinal effects, share of patients” value ([7]; abdominal pain and nausea most frequent) of the same compound?
The value was roughly 20%.

And the “Skin rash and pruritus, share of patients” value ([7]; human, in vivo)?
Its value is 5%.
